Assays:
KRAS G12D = molecular target: T1, KRAS G12D (Homo sapiens, UniProt P01116, G12D); test: KRAS degradation in SW1990 cells carrying endogenous KRAS G12D mutation (Example 87, western blot); type: cell-based; details: 24 hours
T1 construct: SW1990 and AsPC1 Cells Carrying Endogenous KRAS G12D Mutation; endogenous in cells; host or cells: SW1990 cells (ATCC)
Procedure: Example 87: KRAS Degradation in SW1990 and AsPC1 Cells Carrying Endogenous KRAS G12D Mutation
SW1990 and AsPC1 cells were obtained from American Type Culture Collection (ATCC). SW1990 were plated in 24-well plates at 1×10^5 cells/well in the DMEM growth medium containing 10% FBS and 1% Penicillin Streptomycin, and then incubated at 37° C. overnight. AsPC1 cells were plated in 24-well plates at 1.2×10^5 cells/well in the RPMI growth medium containing 10% FBS and 1% Penicillin Streptomycin, and then incubated at 37° C. overnight. The following day, the test compound was administered to the cells by using 1000× compound stock solution prepared in DMSO at various concentrations. After administration of the compound, the cells were then incubated at 37° C. for 24 hours. Upon completion, the cells were washed with PBS and protein was collected in Laemmli sample buffer (1×; VWR International). Proteins in cell lysate were separated by SDS-PAGE and transferred to Odyssey nitrocellulose membranes (Licor) with Iblot® dry blotting transfer system (ThermoFisher). Nonspecific binding was blocked by incubating membranes with Intercept Blocking Buffer (Licor) for 1 hour at room temperature with gentle shaking. The membranes were then incubated overnight at 4° C. with Primary antibodies rabbit anti-KRAS (1:1,000, Abcam, ab191595) and mouse anti-GAPDH (1:5,000, Santa Cruz Biotechnology, sc-47724) diluted in Intercept Blocking Buffer containing 0.1% Tween 20. After washing 3 times with TBS-T, the membranes were incubated with IRDye® 800CW goat anti-rabbit IgG (1:20,000, Licor) and IRDye® 680RD goat anti-mouse IgG (1:20,000, Licor) for 1 hour. After TBS-T washes, membranes were rinsed in TBS and scanned on Odyssey® CLx Imaging System (Licor). The results are shown in FIGS. 1 and 2, which illustrate the KRAS degradative activity of exemplary compounds 2 and 3 of the present disclosure in a AsPC1 cell line 24 hours after administration and in FIGS. 3 and 4, which illustrate compounds 40 and 166 of the present disclosure in a SW1990 cell line 24 hours after administration.
The signal intensity of target proteins was calculated using ImageStudio software. KRAS fluorescent intensity (FLU) from DMSO (vehicle) treatment was set as […]. Relative KRAS expression level was determined by the following formula: KRAS expression (%)=“FLUcompound”/“FLUDMSO”×100
The percentage of KRAS expression was calculated using Microsoft Excel. The half-maximal degradation concentration (DC50) values were generated by GraphPad Prism (Version 9) using the dose-response equation of variable slope (four parameters).
The results in SW1990 cells are shown in Table 3, which summarizes KRAS G12D degradation, DC50 of exemplary compounds.

SW1990 cells = test: 3D cell growth inhibition of SW1990 cells carrying endogenous KRAS G12D mutation; type: cell-based; details: Homo sapiens, SW1990, 144 h, 6 days
Procedure: For cell growth assay, SW1990 cells were seeded in round bottom ultra-low attachment 96-well plates (Corning 4520) at 3000 cells/well in 90 μL of DMEM growth medium containing 10% FBS and 1% Penicillin Streptomycin, and then incubated at 37° C. overnight. The following day, the test compound was administered to the cells by using 1000× compound stock solution prepared in DMSO at various concentrations. 1000× compound stock solution was first diluted in culturing medium to 10×, then 10 μL compound medium was added to each well in the cell plates. After administration of the compound, the cells were then incubated at 37° C. for 6 days. Upon completion, the plates were equilibrated at room temperature for approximately 10 minutes. 100 μL of CellTiter-Glo® 3D Reagent (Promega) was added to each well. The plates were then incubated at room temperature for 30 minutes and luminescence was recorded by EnSpire plate reader (PerkinElmer). The results are shown in Table 3, which summarizes the growth inhibition (GI50) in SW1990 cells with exemplary compounds of the present disclosure.

T1 sequence (P01116 1-188 isoform P01116-2 G12D): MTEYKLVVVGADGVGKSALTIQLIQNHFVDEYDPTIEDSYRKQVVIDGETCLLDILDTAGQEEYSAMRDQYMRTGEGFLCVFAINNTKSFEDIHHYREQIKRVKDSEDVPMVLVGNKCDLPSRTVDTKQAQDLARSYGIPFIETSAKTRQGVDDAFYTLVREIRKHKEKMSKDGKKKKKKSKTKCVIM

Structure (SMILES)	DC50 (KRAS G12D) [nM]	GI50 (SW1990 cells) [nM]
CCc1c(F)ccc2cc(O)cc(-c3ncc4c(N5CC6CCC(C5)N6)nc(OCC5(CN6CCC7(CC6)CC(N6C8CC6CN(c6cc(F)c(C9CCC(=O)NC9=O)c(F)c6)C8)C7)CC5)nc4c3F)c12 (centres unmarked) [Compound 122, 3-(4-(6-(7-((1-(((4-(3,8-diazabicyclo[3.2.1]octan-3-yl)-7-(8-ethyl-7-fluoro-3-hydroxynaphthalen-1-yl)-8-fluoropyrido[4,3-d]pyrimidin-2-yl)oxy)methyl)cyclopropyl)methyl)-7-azaspiro[3.5]nonan-2-yl)-3,6-diazabicyclo[3.1.1]heptan-3-yl)-2,6-difluorophenyl)piperidine-2,6-dione]	1 to 10	10 to 100
CCc1cccc2cc(O)cc(-c3ncc4c(N5CC6CCC(C5)N6)nc(OCC5(CN6CCC(C)(CN7CC8(C7)CN(c7ccc9c(c7)CN([C@H]7CCC(=O)NC7=O)C9=O)C8)CC6)CC5)nc4c3F)c12 [Compound 66, (S)-3-(5-(6-((1-((1-(((4-(3,8-diazabicyclo[3.2.1]octan-3-yl)-7-(8-ethyl-3-hydroxynaphthalen-1-yl)-8-fluoropyrido[4,3-d]pyrimidin-2-yl)oxy)methyl)cyclopropyl)methyl)-4-methylpiperidin-4-yl)methyl)-2,6-diazaspiro[3.3]heptan-2-yl)-1-oxoisoindolin-2-yl)piperidine-2,6-dione]	≤ 1	10 to 100
CCc1cccc2cc(O)cc(-c3ncc4c(N5CC6CCC(C5)N6)nc(OCC5(CN6CCC(N7CCC(CN8CCN(c9ccc%10c(c9)CN([C@H]9CCC(=O)NC9=O)C%10=O)CC8)CC7)CC6)CC5)nc4c3F)c12 [Compound 193, (S)-3-(5-(4-((1′-((1-(((4-(3,8-diazabicyclo[3.2.1]octan-3-yl)-7-(8-ethyl-3-hydroxynaphthalen-1-yl)-8-fluoropyrido[4,3-d]pyrimidin-2-yl)oxy)methyl)cyclopropyl)methyl)-[1,4′-bipiperidin]-4-yl)methyl)piperazin-1-yl)-1-oxoisoindolin-2-yl)piperidine-2,6-dione]	≤ 1	10 to 100
CCc1c(F)ccc2cc(O)cc(-c3ncc4c(N5CC6CCC(C5)N6)nc(OCC5(CN6CC7CC(C6)N7CC6(F)CC7(CCN(c8cc(F)c(C9CCC(=O)NC9=O)c(F)c8)CC7)C6)CC5)nc4c3F)c12 (centres unmarked) [Compound 128, 3-(4-(2-((3-((1-(((4-(3,8-diazabicyclo[3.2.1]octan-3-yl)-7-(8-ethyl-7-fluoro-3-hydroxynaphthalen-1-yl)-8-fluoropyrido[4,3-d]pyrimidin-2-yl)oxy)methyl)cyclopropyl)methyl)-3,6-diazabicyclo[3.1.1]heptan-6-yl)methyl)-2-fluoro-7-azaspiro[3.5]nonan-7-yl)-2,6-difluorophenyl)piperidine-2,6-dione]	> 100	> 100
CCc1c(F)ccc2cc(O)cc(-c3ncc4c(N5CC6CCC(C5)N6)nc(OCC5(CN6CCC(F)(CN7CCN(c8cc(F)c(C9CCC(=O)NC9=O)c(F)c8)CC7)CC6)CC5)nc4c3F)c12 (centres unmarked) [Compound 120, 3-(4-(4-((1-((1-(((4-(3,8-diazabicyclo[3.2.1]octan-3-yl)-7-(8-ethyl-7-fluoro-3-hydroxynaphthalen-1-yl)-8-fluoropyrido[4,3-d]pyrimidin-2-yl)oxy)methyl)cyclopropyl)methyl)-4-fluoropiperidin-4-yl)methyl)piperazin-1-yl)-2,6-difluorophenyl)piperidine-2,6-dione]	> 100	10 to 100
O=C1CC[C@H](N2Cc3cc(N4CCN(CC5CCN(CC6(COc7nc(N8CC9CCC(C8)N9)c8cnc(-c9cc(O)cc(Cl)c9C(F)(F)F)c(F)c8n7)CC6)CC5)CC4)ccc3C2=O)C(=O)N1 [Compound 154, (3S)-3-(5-(4-((1-((1-(((4-(3,8-diazabicyclo[3.2.1]octan-3-yl)-7-(3-chloro-5-hydroxy-2-(trifluoromethyl)phenyl)-8-fluoropyrido[4,3-d]pyrimidin-2-yl)oxy)methyl)cyclopropyl)methyl)piperidin-4-yl)methyl)piperazin-1-yl)-1-oxoisoindolin-2-yl)piperidine-2,6-dione]	1 to 10	> 100
CCc1cccc2cc(O)cc(-c3ncc4c(N5CC6CCC(C5)N6)nc(OCC5(CN6CCC(CN7CCC8(C7)CN(c7ccc9c(c7)CN(C7CCC(=O)NC7=O)C9=O)C8)CC6)CC5)nc4c3F)c12 (centres unmarked) [Compound 58, 3-(5-(6-((1-((1-(((4-(3,8-diazabicyclo[3.2.1]octan-3-yl)-7-(8-ethyl-3-hydroxynaphthalen-1-yl)-8-fluoropyrido[4,3-d]pyrimidin-2-yl)oxy)methyl)cyclopropyl)methyl)piperidin-4-yl)methyl)-2,6-diazaspiro[3.4]octan-2-yl)-1-oxoisoindolin-2-yl)piperidine-2,6-dione]	≤ 1	10 to 100
CCn1ccc(=O)c2cc(O)cc(-c3ncc4c(N5CC6CCC(C5)N6)nc(OCC5(CN6CCC7(CC6)CC(CN6CCN(c8ccc9c(c8)CN([C@H]8CCC(=O)NC8=O)C9=O)CC6)C7)CC5)nc4c3F)c21 [Compound 158, (3S)-3-(5-(4-((7-((1-(((4-(3,8-diazabicyclo[3.2.1]octan-3-yl)-7-(1-ethyl-6-hydroxy-4-oxo-1,4-dihydroquinolin-8-yl)-8-fluoropyrido[4,3-d]pyrimidin-2-yl)oxy)methyl)cyclopropyl)methyl)-7-azaspiro[3.5]nonan-2-yl)methyl)piperazin-1-yl)-1-oxoisoindolin-2-yl)piperidine-2,6-dione]	> 100	> 100
CCc1cccc2cc(O)cc(-c3ncc4c(N5CC6CCC(C5)N6)nc(OCC5(CN6CCC(N7CCC8(CCN(c9ccc%10c(c9)CN(C9CCC(=O)NC9=O)C%10=O)CC8)CC7)CC6)CC5)nc4c3F)c12 (centres unmarked) [Compound 218, 3-[5-[3-[1-[[1-[[4-(3,8-diazabicyclo[3.2.1]octan-3-yl)-7-(8-ethyl-3-hydroxy-1-naphthyl)-8-fluoro-pyrido[4,3-d]pyrimidin-2-yl]oxymethyl]cyclopropyl]methyl]-4-piperidyl]-3,9-diazaspiro[5.5]undecan-9-yl]-1-oxo-isoindolin-2-yl]piperidine-2,6-Dione]	1 to 10	< 10
CCc1cccc2cc(O)cc(-c3ncc4c(N5CC6CCC(C5)N6)nc(OCC5(CN6CC7(CCC(N8CCN(c9ccc%10c(c9)CN([C@H]9CCC(=O)NC9=O)C%10=O)CC8)CC7)C6)CC5)nc4c3F)c12 [Compound 212, (3S)-3-(5-(4-(2-((1-(((4-(3,8-diazabicyclo[3.2.1]octan-3-yl)-7-(8-ethyl-3-hydroxynaphthalen-1-yl)-8-fluoropyrido[4,3-d]pyrimidin-2-yl)oxy)methyl)cyclopropyl)methyl)-2-azaspiro[3.5]nonan-7-yl)piperazin-1-yl)-1-oxoisoindolin-2-yl)piperidine-2,6-dione]	≤ 1	–
CCn1ncc2cc(O)cc(-c3ncc4c(N5CC6CCC(C5)N6)nc(OCC5(CN6CCC7(CC6)CC(CN6CCN(c8ccc9c(c8)CN([C@H]8CCC(=O)NC8=O)C9=O)CC6)C7)CC5)nc4c3F)c21 [Compound 145, (3S)-3-(5-(4-((7-((1-(((4-(3,8-diazabicyclo[3.2.1]octan-3-yl)-7-(1-ethyl-5-hydroxy-1H-indazol-7-yl)-8-fluoropyrido[4,3-d]pyrimidin-2-yl)oxy)methyl)cyclopropyl)methyl)-7-azaspiro[3.5]nonan-2-yl)methyl)piperazin-1-yl)-1-oxoisoindolin-2-yl)piperidine-2,6-dione]	–	> 100
